Common to all, as to assay: In vitro antibacterial activity, two-fold agar-plate dilution method
Common to all, as to assay type: cell-based

The test system of one assay is E. coli NIHJ JC-2. To be noted: Escherichia coli, read-out: MIC (minimal inhibitory concentration). On the procedure:
(§1) In vitro antibacterial activity was determined by the two-fold agar-plate dilution method as described below.
(§2) One loopful of an overnight culture of each test strain in Trypticase-soy broth (10^8 viable cells per ml.) was streaked on heart infusion agar (HI-agar) containing graded concentrations of antibiotics, and the minimal inhibitory concentration (MIC) was expressed in terms of μg/ml. aft er incubation at 37° C. for 20 hours.

The test system of the next assay is Sal. enteritidis. The note with it: Salmonella enterica, HI-agar, 37° C., 20 hours, read-out: MIC (minimal inhibitory concentration). On the procedure:
as §1, §2

The test system of a further assay is Sh. flexneri 2a. The note with it: Shigella flexneri, HI-agar, 37° C., 20 hours, read-out: MIC (minimal inhibitory concentration). On the procedure: as §1, §2
For another assay, the system named is Staph. aureus 209P JC-1. The note with it: Staphylococcus aureus, read-out: MIC (minimal inhibitory concentration). The method, then:
as §1, §2

The mark [1] stands for this setting: NIHJJC2, E. coli NIHJ JC-2, HI-agar, 37° C., 20 hours.
The mark [2] stands for this setting: Staph. aureus 209P JC-1, HI-agar, 37° C., 20 hours.

We go through four compounds from patent US4263291A, “3,7-Disubstituted-3-cephem-4-carboxylic acid compounds and processes for the preparation thereof” (Fujisawa Pharmaceutical Co., Ltd., priority 1976, dated 1981).

Converted amounts (≈) assume the structure as drawn. Read-outs that look alike come from different tables or passages of the source.

Consider `Cn1nnnc1SCC1=C(C(=O)O)N2C(=O)C(NC(=O)/C(=N\O)c3cnsn3)C2SC1` (stereo not drawn) [Test Compound (3), 7-[2-Hydroxyimino-2-(1,2,5-thiadiazol-3-yl)acetamido]-3-(1-methyl-1H-tetrazol-5-yl)thiomethyl-3-cephem-4-carboxylic acid (syn isomer)], for which the MIC in the assay on E. coli NIHJ JC-2 (setting [1]) is 3.13 µg/mL (≈ 6.47 µM); with Sal. enteritidis it was 1.56 µg/mL (≈ 3.23 µM); in the assay on Sh. flexneri 2a it was 0.39 µg/mL (≈ 0.807 µM); in the assay on Staph. aureus 209P JC-1 (setting [2]) it was 0.78 µg/mL (≈ 1.61 µM).
On to `Cn1nnnc1SCC1=C(C(=O)O)N2C(=O)C(NC(=O)/C(=N\O)c3cnsc3)C2SC1` (stereo not drawn) [Test Compound (4), 7-[2-Hydroxyimino-2-(isothiazol-4-yl)acetamido]-3-(1-methyl-1H-tetrazol-5-yl)thiomethyl-3-cephem-4-carboxylic acid (syn isomer)], for which the MIC was 1.56 µg/mL (≈ 3.23 µM) with E. coli NIHJ JC-2 (NIHJJC2, 20 h); 0.78 µg/mL (≈ 1.62 µM) in the assay with Sal. enteritidis; 0.39 µg/mL (≈ 0.808 µM) with Sh. flexneri 2a; 0.39 µg/mL (≈ 0.808 µM) with Staph. aureus 209P JC-1 (setting [2]).
On to `CO/N=C(\C(=O)NC1C(=O)N2C(C(=O)O)=C(CSc3nnnn3C)CSC12)c1csnn1` (stereo not drawn) [Test Compound (1), 7-[2-Methoxyimino-2-(1,2,3-thiadiazol-4-yl)acetamido]-3-(1-methyl-1H-tetrazol-5-yl)thiomethyl-3-cephem-4-carboxylic acid (syn isomer)], for which the MIC in the assay with E. coli NIHJ JC-2 (setting [1]) was 0.78 µg/mL (≈ 1.57 µM); in the assay with Sal. enteritidis it was 0.2 µg/mL (≈ 0.402 µM); in the assay with Sh. flexneri 2a, 1.56 µg/mL (≈ 3.14 µM); in the assay with Staph. aureus 209P JC-1 (setting [2]) it was 3.13 µg/mL (≈ 6.29 µM).
Take `CO/N=C(/C(=O)NC1C(=O)N2C(C(=O)O)=C(CSc3nnnn3C)CSC12)c1csnn1` (stereo not drawn) [Test Compound (2), 7-[2-Methoxyimino-2-(1,2,3-thiadiazol-4-yl)acetamido]-3-(1-methyl-1H-tetrazol-5-yl)thiomethyl-3-cephem-4-carboxylic acid (anti isomer)]: the MIC in the assay on E. coli NIHJ JC-2 (setting [1]) came out at 25 µg/mL (≈ 50.2 µM); with Sal. enteritidis it was 6.25 µg/mL (≈ 12.6 µM); with Sh. flexneri 2a it was 12.5 µg/mL (≈ 25.1 µM); in the assay with Staph. aureus 209P JC-1 (209P, 20 h), 12.5 µg/mL (≈ 25.1 µM).
